The text below walks through data of publication PMC8470881, “Membrane Interactions of Latarcins: Antimicrobial Peptides from Spider Venom” (International Journal of Molecular Sciences, 2021).

The nature of data set [1]: Circular dichroism spectroscopy (secondary structure). It counts as physicochemical. As to conditions: for % Helix (CD): CD in DMPC/DMPG (7/3) SUVs, P/L = 1:50, 10 mM phosphate buffer pH 7.0, 30 °C, peptide 29.3 μM, deconvolution with CDSSTR, CONTIN-LL, SELCON-3. An excerpt:
Next, we compared the secondary structure of the full set of latarcins in the presence of lipid membranes, for which there are no complete data available yet.
The CD line shapes (Figure 2) were deconvoluted to estimate the secondary structure contributions (Supplementary Table S1) using the CDSSTR, CONTIN-LL, and SELCON-3 algorithms provided on the DICHROWEB online server as described previously. […] In peptides containing a high proportion of aromatic residues, such shifts of the long-wavelength band are well documented.
Small unilamellar vesicles (SUVs) for the CD measurements were prepared as follows. Weighed amounts of the lipid powders (DMPC, DMPG) were dissolved in chloroform/methanol 1/1 (v/v) to obtain 5 mg/mL stock solutions. For obtaining mixed DMPC/DMPG liposomes (7/3 molar ratio), the appropriate aliquots of these stock solutions were pipetted in a glass vial and thoroughly vortexed. The organic solvents were removed under a gentle stream of nitrogen gas, followed by 3 h of vacuum pumping in an exsiccator at a reduced pressure of 3-4 mbars to remove solvent residuals from the lipid film that had formed in the vial. The lipid film was dispersed by the addition of 10 mM phosphate buffer (PB) pH 7.0 and homogenized by vigorously vortexing for 10 × 1 min and 10 freeze–thaw cycles. SUVs were formed by sonication of the obtained multilamellar vesicles for 16 min in a strong ultrasonic bath (UTR 200, Hielscher, Germany). The temperature of the water in the ultrasonic bath was adjusted to 35 °C by circulating it through a thermostat to avoid overheating the samples. A weighed amount of the corresponding peptide was dissolved in water resulting in stock solutions with a peptide concentration of 0.5 mg/mL. For the final CD samples, each peptide stock solution was diluted to 29.3 μM and the corresponding lipid dispersion to 1.47 mM in 10 mM PB, resulting in a peptide-to-lipid (P/L) ratio of 1/50.
[…] The samples were measured in a 1-millimeter path length quartz glass cell (Suprasil, Hellma Müllheim, Germany) between 260 and 185 nm at 0.5 nm intervals. Spectra of the liposome samples were recorded at 30 °C, i.e., well above the phase transition temperature of the lipids, using a water-thermostated rectangular cell holder. Three repeat scans at a scan rate of 10 nm min^−1, 8 s response time, and 1 nm bandwidth were averaged for each sample, and the baseline spectrum of the respective peptide-free sample was subtracted from the sample spectrum. CD spectra were smoothened by a Savitzky-Golay filter (convolution width of 15 data points), which is implemented in the Jasco Spectra Analysis software.
In general terms: CD spectra are sensitive to the conformation of chiral molecules.

Data set [2] can be described thus: Solid-state 15N-NMR (helix alignment in membrane). As to conditions: DMPC/DMPG (7/3); for NMR: orientational state of the helix: P/L = 1:100, oriented samples, solid-state 15N-NMR, 308 K. The format is physicochemical. On the procedure:
While OCD provides a rough picture of the peptide alignment, the helix tilt angle can be measured rather precisely by solid-state NMR using the same type of oriented membrane sample. […] If the peptides are not helical, then the orientation cannot be determined from these ^15N-NMR spectra (which is why CD/OCD need to be performed first), but other information may be available. Oriented NMR samples were prepared at a P/L of 1/100 in DMPC/DMPG (7/3), as for CD/OCD. The ^15N-NMR spectra of all latarcins are summarized in Figure 7, along with the corresponding ^31P-NMR spectra of the phospholipid component. […] This conclusion is supported by the vesicle leakage data above.
Ltc2a, with a chemical shift of 131 ppm, on the other hand, is distinctly tilted in the membrane, as was also observed in the OCD experiments. […] Ltc3a, with a chemical shift of 93 ppm, is tilted only slightly by 10–20°. […] Given that OCD had shown distinct signs of aggregation into β-sheets, we can conclude that Ltc6a binds to the membrane and perturbs the lipid bilayer, but it is not possible to determine the molecular alignment of Ltc6a when it has most likely formed aggregates.
Macroscopically oriented NMR samples were prepared by co-dissolving appropriate amounts of peptides and lipids (in 300 μL methanol, 100 μL CHCl3, and 10–20 μL Milli-Q water) and spreading them onto 23 thin glass plates of dimensions 9 mm × 7.5 mm × 0.08 mm (Marienfeld Laboratory Glassware, Lauda-Königshofen, Germany). The peptide-to-lipid ratio (P/L) is given in mol/mol. The plates were dried in air for 1 h, followed by drying under vacuum overnight. The plates were stacked and placed into a hydration chamber with 96% relative humidity at 48 °C for 18–24 h before wrapping the stack in parafilm and plastic foil for the NMR measurements. All solid-state NMR measurements were carried out on a Bruker Avance 500 MHz spectrometer (Bruker Biospin, Karlsruhe, Germany) at 308 K, as previously reported. The oriented membrane samples were placed in the flat-coil probe such that the lipid bilayer normal was aligned parallel to the magnetic field. ^31P-NMR was used to check the quality of the lipid orientation in the samples, using a Hahn echo sequence with phase cycling. The 90° pulse length was 3.9 µs, the echo time was 30 µs, and 17 kHz ^1H SPINAL64 decoupling was used. ^1H-^15N cross-polarization experiments using a CP-MOIST pulse sequence were performed using a double-tuned probe with a low-E flat-coil resonator (3 mm × 9 mm cross-section), employing a ^1H and ^15N radiofrequency field strength of 65 kHz during the cross-polarization and 25 kHz ^1H SPINAL16 [41] decoupling during acquisition. A mixing time of 500 μs was used, and 10,000 to 30,000 scans were accumulated. The acquisition time was 10 ms, and the recycle time was 3 s. The ^15N chemical shift was referenced using the ^1H-NMR signal of water in the sample.

On to “H-GFFGKMKEYFKKFGASFKRRFANLKKRL-NH2 [Ltc5]”, for which, in data set [1], the “% Helix (CD)” value amounted to 85%. For the same substance, the “NMR: orientational state of the helix” value in data set [2] is given as “Surface”.

With “H-QAFQTFKPDWNKIRYDAMKMQTSLGQMKKRFNL-OH [Ltc6a]”, the “% Helix (CD)” value in data set [1] was 65%. Besides, the “NMR: orientational state of the helix” value in data set [2] is reported as “Aggregated”.

With H-GLKDKFKSMGEKLKQYIQTWKAKF-NH2 [Ltc4a], the “% Helix (CD)” value in data set [1] was 94%.

For the substance “G E TF D K L K E K L K TFYQ K LV E K A ED L K G D L K A K LS-acid [Ltc7]”, the “% Helix (CD)” value in data set [1] is recorded as 89%. Also, the “NMR: orientational state of the helix” value in data set [2] was “Surface”.

On to H-SWKSMAKKLKEYMEKLKQRA-NH2 [Ltc3a], for which the “helical fold (CD) in buffer without lipids” value in data set [1] (10 mM phosphate buffer pH 7, no lipids, 30 °C) is “ca. 30%”. In addition, in data set [1], the “% Helix (CD)” value came to 87%. Moreover, the “NMR: orientational state of the helix” value in data set [2] was “Slight tilt”. The “helix tilt angle away from the flat surface orientation” value in data set [2] (from 15N chemical shift, P/L 1/100) is on record as 10–20 °.
